Key:
[1] = biological target: T1, vitamin D receptor (Homo sapiens, UniProt P11473); details: agonism at the vitamin D receptor without 1α-hydroxylation; cited from earlier work
T1 sequence (P11473 1-427): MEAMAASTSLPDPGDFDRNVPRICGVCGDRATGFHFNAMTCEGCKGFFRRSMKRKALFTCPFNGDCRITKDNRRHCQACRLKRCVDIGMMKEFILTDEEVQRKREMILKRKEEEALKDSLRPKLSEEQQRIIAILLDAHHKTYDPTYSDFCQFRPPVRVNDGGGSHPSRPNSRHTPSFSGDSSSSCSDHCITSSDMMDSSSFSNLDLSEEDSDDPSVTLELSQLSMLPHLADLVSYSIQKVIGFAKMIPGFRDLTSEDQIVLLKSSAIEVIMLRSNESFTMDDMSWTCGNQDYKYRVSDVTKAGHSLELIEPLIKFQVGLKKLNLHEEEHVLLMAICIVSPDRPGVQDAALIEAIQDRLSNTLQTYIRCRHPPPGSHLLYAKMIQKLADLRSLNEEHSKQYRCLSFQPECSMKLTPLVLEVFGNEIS

[2] = Stability of amorphous vitamin D3 cast as a thin film; type: physicochemical
Source text: In an additional experiment, vitamin D3 was cast as a thin film by evaporating a solution of vitamin D in ethyl acetate and the stability of this amorphous form of vitamin D was also investigated. […] The results of this and the previous experiment highlight the inherently low stability of vitamin D and the impact of both humidity and physical form (crystalline vs. amorphous) on degradation rates.

[3] = Chemical stability of neat, crystalline vitamin D3 at 40° C. and various humidities; type: physicochemical; details: one week
Method: Stability of neat, crystalline vitamin D3 was investigated at 40° C. and 5%, 20%, 50%, 75% relative humidity (% RH) over the course of one week. This experiment was used as a baseline for comparison of vitamin D3 stability after formulation as indicated above. A pronounced dependence of degradation rate upon relative humidity was observed, as depicted in FIG. 1. Under low humidity conditions, loss of active occurred at a rate of 0.58%/day and 0.76%/day at 5% RH and 20% RH, respectively.

SMILES	intrinsic activity, fold lower than that of 1α,25-dihydroxy-cholecalciferol [1]	degradation after 3 days ([2]; 25° C.)	degradation after 3 days ([2]; 40° C.)	degradation after 3 days ([2]; 40° C./75% RH)	rate of loss of active ([3]; 5% RH) [%/day]	rate of loss of active ([3]; 20% RH) [%/day]	degradation rate ([3]; 50% RH) [%/day]	degradation rate ([3]; 75% RH) [%/day]
C=C1CC[C@H](O)C/C1=C/C=C1\CCC[C@]2(C)[C@@H]([C@H](C)CCCC(C)(C)O)CC[C@@H]12 [25-hydroxy-cholecalciferol]	about 100 fold	–	–	–	–	–	–	–
C=C1CC[C@H](O)C/C1=C/C=C1\CCC[C@]2(C)[C@@H]([C@H](C)CCCC(C)C)CC[C@@H]12 [vitamin D3, cholecalciferol]	–	Essentially complete degradation	Essentially complete degradation	Essentially complete degradation	0.58	0.76	5.5	10.8
